Measured values reported in patent publication US20040022834A1, “Pharmaceutical oxan preparation” (priority 2000, published 2004).
Where a name gives a salt, the structure may show the parent alone. Read-outs that look alike come from different tables or passages of the source.

Tests used:
[1] = ex vivo permeation on animal skins after pretreatment with a promoter (reference batch CM586); format: in vitro ADME; conditions: ratio of quantity accumulated at 24 h, trial (skin pretreated with promoter) to reference batch CM586; as dexefaroxan base
Description: FIG. 3 represents the quantities expressed as dexefaroxan base of the accumulated quantities (μg/cm^2); it involves comparing the reference batch CM586 with or without individual pretreatment with promoters.

[2] = format: in vitro ADME
Description: These values are sufficiently high to make it possible to aim at the daily administration, from a transdermal patch, of a quantity of efaroxan base or hydrochloride in the mg range.
FIG. 4 represents the quantities of idazoxan base and hydrochloride released ex vivo using animal skins, in the case of aqueous alcoholic solutions according to the invention.

## Sorbitan monooleate
[1]
  permeation index (PI): 2.6

## CC[C@]1(C2=NCCN2)Cc2ccccc2O1 [dexefaroxan base]
[2]
  quantities accumulated at 24 hours: ~8.5 mg/cm^2

## CC[C@]1(C2=NCCN2)Cc2ccccc2O1 [dexefaroxan hydrochloride]
[2]; 24 h, 10 % m/v
  quantities accumulated at 24 hours: ~1.0 mg/cm^2

## Mannitan oleate
[1]
  permeation index (PI): 2.4

## c1ccc2c(c1)OCC(C1=NCCN1)O2 (stereo not shown) [idazoxan hydrochloride, 2-(1,4-benzodiosan-2-yl)-2-imidazoline]
[2]; 24 h, 10 % m/v
  quantities accumulated at 24 hours: ~0.25 mg/cm^2

## c1ccc2c(c1)OCC(C1=NCCN1)O2 (stereo not shown) [idazoxan base, 2-(1,4-benzodiosan-2-yl)-2-imidazoline]
[2]
  quantities accumulated at 24 hours: ~5 mg/cm^2
  quantities released at 24 h, base form versus hydrochloride: significantly higher
